The values that follow are results of earlier work, collected in US20040185009A1, “Composition and device for treating periodontal diseases” (DEXCEL PHARMA TECHNOLOGIES LTD., priority 2003, published 2004).

Structures are written as SMILES.

The test system of series [1] is periodontal disease. Conditions: 24 months, FBP-treated patient group.
The subject of series [2] is periodontal disease. Conditions: 100 mg/day for two months.

Regarding `CC(C(=O)O)c1ccc(-c2ccccc2)c(F)c1` (centres unmarked) [FBP, Flurbiprofen], the “Effect on bone loss” value in the series with periodontal disease [1] is reported as “reduction in bone loss”. Also, the “Effect on bone metabolism (standardized radiography, radiopharmaceutical uptake)” value in the series on periodontal disease [2] is given as “increased bone metabolism”.
